Test results published in patent US20230076792A1, “SEQUENTIAL TARGETING IN CROSSLINKING NANO-THERANOSTICS FOR TREATING BRAIN TUMORS” (The Regents of the University of California, priority 2019, published 2023).

Legend:
[1] = In vitro drug release profile (dialysis, pH 7.4 then pH 6.5); format: physicochemical; conditions: pH 7.4 PBS
Description: Drug release profile. STICK-NP@Cy@Gd was prepared to evaluate the in vitro release profile using dialysis cassettes (Pierce Chemical Inc.) with a 3 kDa MWCO. To make an ideal sink condition, 10 g charcoal was added in the release medium. The cassettes were dialyzed against PBS (pH7.4) at room temperature. The PBS at pH 7.4 was replaced with fresh PBS at pH 6.5 at 4 h. The concentration of CY7.5 and Gd-DTPA remaining in the dialysis cassette at various time points was measured by UV-vis spectroscopy and ICP-MS.

DIPG (PDX) cells = test: Anti-cancer efficacy in orthotopic PDX DIPG mouse model; format: in vivo, SCID mouse
Description: Anti-cancer efficacy study in orthotopic brain tumor models. […] After confirming the establishment of brain tumors, mice were randomly assigned into different groups. Tumor size was monitored using advanced T1-weight imaging (TR/TE=300 ms/15 ms). For imaging study, mice were injected with 250 mg/kg Gd-DTPA. Tumor size of DIPG model was calculated from the aggregation of tumor area in different MRI slices, 1 mm thick. Tumor size of GBM model was calculated as the followed equation: […]
where W is the width of the tumor and the L is the length of the tumor (W<L). One mouse per group was sacrificed on day 12 after MRI imaging, and organs and brain with tumors were harvested for histopathology evaluation. Animals were continuously monitored their appearance, behavior, and body weight. Once the body weight loss>20%, animals were considered as reaching the humane endpoint.

[2] = Pharmacokinetic study in jugular vein catheterized rats; format: in vivo; conditions: Cy7.5 10 mg/kg, serum
Description: FIGS. 2A and 2B show cumulative release profile for both hydrophilic (Gd-DTPA) (FIG. 2A) and hydrophobic (Cy7.5) payloads (FIG. 2B) from STICK-NPs and NM in the presence of different pH. A mixture of NM and free Gd was used in (FIG. 2A), as Gd could not be loaded into NM. Drug release study was performed initially at pH 7.4 PBS (grey areas) and was then subjected to pH 6.5 after 4 h (pink areas). Samples were collected at different time points and were measured by inductively coupled plasma mass spectrometry (ICP-MS) for Gd-DTPA level and fluorescence spectrometer for the concentration of Cy7.5. (n=3). […] (n=3) FIG. 2E show the intensity-weighted distribution changes of STICK-NPs in the presence of different concentrations of glucose (mmol/L). Of note, normal human serum glucose level ranges from 3.9 to 5.5 mmol/L. FIG. 2F show pharmacokinetic profiles of free Cy7.5, STICK-NP@Cy, and NM@Cy (Cy7.5, 10 mg/kg) in jugular vein catheterized rats (n=3). Serum was collected at different time points, and drug concentrations were measured based on fluorescence signals. The error bars were the standard deviation (SD).

U87-MG cells = test: Cellular uptake assay in brain tumor cells; format: cell-based, human; conditions: pH 6.5 versus pH 7.4, Cy7.5 0.1 mg/mL
Description: To study the cellular uptake of STICK-NP@Cy, the bEnd.3 cells or U87-MG cells were seeded on 8-well chamber slides (10000 cells/well) and treated with STICK-NP@Cy and other controls (0.1 mg/mL Cy7.5) for 1 hour and washed by PBS three times. Cells were then fixed and stained with DAPI. Cell imaging was acquired using a Keyence fluorescence microscope. For quantitative study, bEnd.3 cells or U87-MG cells (10000 cells/well) were seeded in 96 well plate for overnight and then treated the cells with STICK-NP@Cy and other controls (0.1 mg/mL Cy7.5). Cells were harvested at 0 h, 1 h, 2 h, 3 h, and 4 h and washed with PBS. Total cells were lysed with 100 μL DMSO and the fluorescence intensity was measured by fluorescence spectrophotometer (RF-6000, Shimazu, Japan). To inhibit GLUT1 activity, bEnd.3 cells were pretreated with 40 μM of WZB-117 for 24 h before incubation with STICK-NP@Cy. For the tumor uptake study, U87-MG cells were pretreated with 40 μM of AZT for 24 h to alter the expression of surface sialic acid. To block the interaction, U87-MG cells were pre-incubated with excess free CBA (80 μM) for 24 h to compete for the binding sites with STICK-NP@Cy (pH 6.5) through the CBA targeting moiety in the secondary smaller micelles.

## CNC[C@H](O)[C@@H](O)[C@H](O)[C@H](O)CO.CNC[C@H](O)[C@@H](O)[C@H](O)[C@H](O)CO.O=C([O-])CN(CCN(CC(=O)[O-])CC(=O)O)CCN(CC(=O)[O-])CC(=O)O.[Gd+3] [free Gd-DTPA, gadopentetic acid]
[1]
  Release of Gd-DTPA: released immediately

## CC[C@]1(O)C[C@H]2CN(CCc3c([nH]c4ccccc34)[C@@](C(=O)OC)(c3cc4c(cc3OC)N(C=O)[C@H]3[C@@](O)(C(=O)OC)[C@H](OC(C)=O)[C@]5(CC)C=CCN6CC[C@]43[C@@H]65)C2)C1 [free VCR, vincristine]
DIPG (PDX) cells; MRI, compared to PBS control
  Effect on tumor growth: minimal inhibition effects
DIPG (PDX) cells; mouse, in vivo
  Extension of survival compared to PBS control: failed to extend the survival
  Survival of mice beyond day 12: died after day 12

## cyanine 7.5 [Free Cy]
[2]
  AUC(0-∞): 51400 ± 13400 ng·h/mL
  Cmax: 4190 ± 400 ng/mL
  Vz: 2.46 ± 0.51 L/kg
  t1/2z: 16.92 ± 0.78 h
U87-MG cells
  U87-MG cell uptake after pretreatment with pH 6.5: no significant enhancement
